For one data set, the target named is T1, human RXFP1 (Homo sapiens, UniProt Q9HBX9).
T1 sequence (Q9HBX9 1-757): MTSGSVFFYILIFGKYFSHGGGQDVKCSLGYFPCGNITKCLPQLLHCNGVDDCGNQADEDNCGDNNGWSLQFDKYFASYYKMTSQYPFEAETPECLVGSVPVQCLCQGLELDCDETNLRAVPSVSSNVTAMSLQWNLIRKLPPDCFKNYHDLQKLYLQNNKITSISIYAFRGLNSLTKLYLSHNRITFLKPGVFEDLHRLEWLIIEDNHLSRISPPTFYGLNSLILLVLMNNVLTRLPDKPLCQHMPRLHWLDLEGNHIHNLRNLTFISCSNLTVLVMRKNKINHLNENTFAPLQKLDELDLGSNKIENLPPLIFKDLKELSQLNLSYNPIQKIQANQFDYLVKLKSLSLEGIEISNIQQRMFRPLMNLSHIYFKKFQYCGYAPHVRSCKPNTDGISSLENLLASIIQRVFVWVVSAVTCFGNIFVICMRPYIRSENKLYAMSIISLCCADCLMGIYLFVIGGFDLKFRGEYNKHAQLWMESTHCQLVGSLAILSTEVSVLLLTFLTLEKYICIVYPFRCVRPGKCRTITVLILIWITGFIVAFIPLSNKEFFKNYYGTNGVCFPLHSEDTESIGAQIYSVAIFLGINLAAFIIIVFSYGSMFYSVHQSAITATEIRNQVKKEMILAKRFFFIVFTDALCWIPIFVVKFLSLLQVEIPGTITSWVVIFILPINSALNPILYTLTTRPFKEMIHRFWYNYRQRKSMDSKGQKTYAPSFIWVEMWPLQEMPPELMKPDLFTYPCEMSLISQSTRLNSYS
Nature of the data set: RXFP1 Hu cAMP (Test A). Further details: expressed in transfected cells; host or cells: Jump-In T-REx CHO-K1 cells (ThermoFisher), induced with 10 ng/ml doxycycline for 24 h. It is filed as cell-based. The method, boiled down: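 Competitive HTRF cAMP readout (2 h, room temperature) in CHO-K1 cells stably expressing human RXFP1, induced with 10 ng/ml doxycycline for 24 h; IBMX 0.5 mM final.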

Data set [1] is described as follows: Human Liver Microsomal Stability (Test C). It counts as in vitro ADME. In a few lines:
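Human liver microsome incubation per the Wernevik et al. integrated DMPK panel protocol. Intrinsic clearance reported as CLint in μl/min/mg protein, averaged arithmetically over repeat runs.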

Data set [2] in a line: Rat Hepatocyte Stability (Test E). Conditions: geometric mean if run multiple times. It counts as in vitro ADME. In a few lines:
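Run per the published AstraZeneca-type rat hepatocyte stability protocol (Wernevik et al. panel). Values are mean intrinsic clearance, Clint in μl/min/10^6 cells; geometric mean used for repeated runs.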

Data set [3] can be described thus: Human Plasma Protein Binding (Test B). It is filed as in vitro ADME. Conditions: fraction unbound (fu). The method, boiled down:
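Human plasma protein binding run per the published Wernevik et al. (2020) integrated DMPK panel protocol. Values are fraction unbound (fu, % free); repeat runs averaged arithmetically.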

A further data set is described as follows: Solubility (Test F). It counts as physicochemical. The conditions noted are these: arithmetic mean if run multiple times. The method, then:
The assay was conducted according to the Solubility Assay described in pages 164-167 of Wernevik, J. et al., “A Fully Integrated Assay Panel for Early Drug Metabolism and Pharmacokinetics Profiling”, Assay and Drug Development Technologies, 2020, 18(4), 157-179. Data are reported in Table 36 as solubility ([…]. Where the assay was run multiple times for the same compound, the arithmetic mean is reported.

Data set [4] in a line: Human Hepatocyte Stability (Test D). It is filed as in vitro ADME. The conditions noted are these: cryopreserved pooled human hepatocytes (LiverPool 10-Donor), geometric mean if run multiple times. The method, boiled down:
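Pooled 10-donor cryopreserved human hepatocytes (≥80% viable) in L-15 medium at 0.25×10^6 cells per 0.25 mL well. Compound added from 100 μM acetonitrile solution; incubated at 37 °C with shaking, acetonitrile-quenched, LC-MS analysed. Clint (μL/min/10^6 cells) from ln % parent vs time slope; geometric mean of repeat runs.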

The mark [5] stands for this setting: RXFP1 Hu cAMP, read-out: Test A EC50.

Values after ≈ are worked out from the molar mass of the structure shown. Read-outs that look alike come from different tables or passages of the source.

What is called EC50 is the concentration at which the effect is half-maximal. A word on the microsomal CLint: it is the capacity of the preparation to metabolise the compound, expressed as a volume cleared per time. A higher microsomal CLint goes with faster metabolism. Usually hepatocyte CLint stands for the rate of metabolic loss divided by the concentration. Higher therefore signals rapid turnover. In general, solubility refers to how much of the substance goes into solution per volume. Read a high solubility as much dissolved substance. `COc1cc(F)c(OC2CCC(C)(C(=O)O)CC2)cc1C(=O)NC1CC(OC)CC1C(=O)Nc1cccc(S(=O)(=O)C(F)(F)F)c1` (single isomer, unassigned) [Example 524, (1R,4s)-4-(2-Fluoro-4-methoxy-5-(((1S*,2R*,4R*)-4-methoxy-2-((3-((trifluoromethyl)sulfonyl)phenyl)carbamoyl)cyclopentyl)carbamoyl)phenoxy)-1-methylcyclohexane-1-carboxylic acid]: the “Test A Sinf” value on human RXFP1 (RXFP1 Hu cAMP) was found to be 110%. Further, on human RXFP1 (setting [5]), the EC50 worked out at 25 nM. The compound further came in with a microsomal CLint in data set [1] (human, liver microsomes) of 16 µL/min/mg. For the same compound, the hepatocyte CLint in data set [2] (rat, hepatocytes) came out at 23 µL/min/1e6 cells. Besides, the “Test B Human Plasma Protein Binding (% free)” value in data set [3] is 3.6 % free. Further, in “Solubility (Test F)”, the concentration in solution (solubility) came to 920 µM (≈ 621 µg/mL). In data set [4] (human), this compound registered a hepatocyte CLint at 1 µM of 6.2 µL/min/1e6 cells.

With `COc1cc(C#N)c(O[C@H]2CC[C@@](C)(C(=O)O)CC2)cc1C(=O)NC1C2CCC(O2)C1C(=O)NCC1(C)CCC1` (single isomer, unassigned) [Example 534, (1R,4s)-4-(2-Cyano-4-methoxy-5-(((1S*,2S*,3R*,4R*)-3-(((1-methylcyclobutyl)methyl)carbamoyl)-7-oxabicyclo[2.2.1]heptan-2-yl)carbamoyl)phenoxy)-1-methylcyclohexane-1-carboxylic acid], the “Test A Sinf” value on human RXFP1 (RXFP1 Hu cAMP) was determined as 106%. Moreover, the EC50 on human RXFP1 (setting [5]) was 99 nM. The microsomal CLint in data set [1] (human, liver microsomes) turned out to be 16 µL/min/mg. The compound further displayed a hepatocyte CLint in data set [2] (rat, hepatocytes) of 19 µL/min/1e6 cells. Besides, the “Test B Human Plasma Protein Binding (% free)” value in data set [3] amounted to 7.1 % free. The same compound came in with a solubility in the data set “Solubility (Test F)” of more than 1000 µM. Further, the intrinsic clearance (hepatocyte CLint) at 1 µM in data set [4] (human) turned out to be 43 µL/min/1e6 cells.

As to `COc1cc(C#N)c(OC2CCC(C)(C(=O)O)CC2)cc1C(=O)NC1C(C(=O)NCC2(C)CCC2)C2CCC1N2CCC(F)(F)F` (single isomer, unassigned) [Example 536, (1R,4s)-4-(2-Cyano-4-methoxy-5-(((1S*,2S*,3R*,4R*)-3-(((1-methylcyclobutyl)methyl)carbamoyl)-7-(3,3,3-trifluoropropyl)-7-azabicyclo[2.2.1]heptan-2-yl)carbamoyl)phenoxy)-1-methylcyclohexane-1-carboxylic acid], on human RXFP1 (RXFP1 Hu cAMP), the “Test A Sinf” value stood at 97%. The same compound returned an EC50 at human RXFP1 (Test A EC50, RXFP1 Hu cAMP) of 5.1 nM. For the same compound, in data set [1] (human liver microsomes), the microsomal CLint is 250 µL/min/mg. This compound also had a hepatocyte CLint in data set [2] (rat hepatocytes) of 43 µL/min/1e6 cells. Further, in data set [3], the “Test B Human Plasma Protein Binding (% free)” value worked out at 3.3 % free. In addition, the concentration in solution in the data set “Solubility (Test F)” (solubility) came to 420 µM (≈ 272 µg/mL). This compound also returned a hepatocyte CLint at 1 µM in data set [4] of 130 µL/min/1e6 cells.

Regarding `COc1cc(C#N)c(O[C@H]2CC[C@@](C)(C(=O)O)CC2)cc1C(=O)NC1C2C=CC(CC2)C1C(=O)NCC1(C)CCC1` (single isomer, unassigned) [Example 540, (1R,4s)-4-(2-Cyano-4-methoxy-5-(((1R*,2S*,3R*,4S*)-3-(((1-methylcyclobutyl)methyl)carbamoyl)bicyclo[2.2.2]oct-5-en-2-yl)carbamoyl)phenoxy)-1-methylcyclohexane-1-carboxylic acid], on human RXFP1 (RXFP1 Hu cAMP), the “Test A Sinf” value was 104%. At human RXFP1 (setting [5]), the EC50 is 20 nM. The same compound had a microsomal CLint in data set [1] (human, liver microsomes) of 20 µL/min/mg. In data set [2] (rat, hepatocytes), this compound came in with a hepatocyte CLint of 19 µL/min/1e6 cells. Moreover, in data set [3], the “Test B Human Plasma Protein Binding (% free)” value is listed as 6 % free. Further, the solubility in the data set “Solubility (Test F)” was 1000 µM (≈ 564 µg/mL). Further, the hepatocyte CLint at 1 µM in data set [4] (human) is 8.5 µL/min/1e6 cells.

`COc1cc(F)c(OC2CCC(C)(C(=O)O)CC2)cc1C(=O)NC1C2CCC(CC2)C1C(=O)NCC1(C)CCC1` (single isomer, unassigned) [Example 542, (1R,4s)-4-(2-Fluoro-4-methoxy-5-(((2S*,3R*)-3-(((1-methylcyclobutyl)methyl)carbamoyl)bicyclo[2.2.2]octan-2-yl)carbamoyl)phenoxy)-1-methylcyclohexane-1-carboxylic acid]: the “Test A Sinf” value at human RXFP1 (RXFP1 Hu cAMP) turned out to be 110%. The EC50 at human RXFP1 (setting [5]) is 11 nM. Moreover, in data set [1] (human, liver microsomes), the microsomal CLint came to 66 µL/min/mg. In data set [2] (rat, hepatocytes), this compound had a hepatocyte CLint of 12 µL/min/1e6 cells. Also, in data set [3], the “Test B Human Plasma Protein Binding (% free)” value is listed as 2.5 % free. In “Solubility (Test F)”, the concentration in solution (solubility) came to 800 µM (≈ 447 µg/mL). The hepatocyte CLint at 1 µM in data set [4] (human) is 32 µL/min/1e6 cells.

Values taken from US11667602B2, “Compounds and their use” (AstraZeneca AB, priority 2020, dated 2023).
